Laboratory results: the supplement of paper PMC6045584
± gives the standard deviation of the averaged measurements.

Compound: C=CCNC1=C2C[C@@H](C)C[C@H](OC)[C@H](O)[C@@H](C)/C=C(\C)[C@H](OC(N)=O)[C@@H](OC)/C=C\C=C(/C)C(=O)NC(=CC1=O)C2=O [17-AAG]
Assay: surviving fraction relative to DMSO-only wells; higher = less growth inhibition
Settings: exposure time: 5 days
Summary of the method: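 Inhibitors at 0.5, 1, 5, 10, 50, 100, 500 and 1000 nM were applied continuously for five days to tumour cell lines seeded in log phase at 250–500 cells per well in 384-well plates 24 hours earlier. Viability was measured by CellTiter-Glo luminescence and expressed as surviving fraction relative to the median of DMSO-only wells. Luminescence was taken after 10 minutes at room temperature.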

Test System	surviving fraction (0.5 nM)	surviving fraction (1 nM)	surviving fraction (5 nM)	surviving fraction (10 nM)	surviving fraction (50 nM)	surviving fraction (100 nM)	surviving fraction (500 nM)	surviving fraction (1000 nM)
T47D BREAST	0.943 ± 0.058	0.914 ± 0.035	0.944 ± 0.011	0.958 ± 0.046	0.928 ± 0.023	0.747 ± 0.032	0.4288 ± 0.004	0.425 ± 0.0062
CHLA90 AUTONOMIC GANGLIA	0.927 ± 0.033	0.941 ± 0.023	0.912 ± 0.055	0.889 ± 0.037	0.476 ± 0.012	0.32 ± 0.018	0.175 ± 0.0084	0.143 ± 0.0023
SCC47 HEADNECK	0.908 ± 0.024	0.925 ± 0.028	0.973 ± 0.014	0.939 ± 0.028	0.964 ± 0.053	0.255 ± 0.032	0.095 ± 0.002	0.067 ± 0.0044
CASKI CERVIX	0.745 ± 0.065	0.787 ± 0.04	0.77 ± 0.057	0.599 ± 0.072	0.1 ± 0.007	0.054 ± 0.0053	0.0283 ± 0.0025	0.0287 ± 0.0015
HU09 BONE	0.918 ± 0.045	0.935 ± 0.14	0.542 ± 0.025	0.131 ± 0.038	0.0283 ± 0.00058	0.0237 ± 0.0031	0.0233 ± 0.0029	0.0233 ± 0.0038
SAOS2 BONE	0.829 ± 0.046	0.775 ± 0.01	0.859 ± 0.099	0.77 ± 0.073	0.215 ± 0.031	0.0823 ± 0.004	0.069 ± 0.0087	0.0783 ± 0.0058
SUM149 BREAST	0.924 ± 0.031	0.964 ± 0.026	0.87 ± 0.053	0.35 ± 0.018	0.0457 ± 0.0049	0.034 ± 0.004	0.0233 ± 0.0023	0.0237 ± 0.00058
SYO1 SYNOVIAL	0.8369 ± 0.0068	0.819 ± 0.049	0.8483 ± 0.0038	0.8 ± 0.038	0.488 ± 0.042	0.183 ± 0.012	0.0407 ± 0.0017	0.0322 ± 0.0014
DU4475 BREAST	0.798 ± 0.24	0.794 ± 0.15	0.764 ± 0.11	0.392 ± 0.11	0.0277 ± 0.0047	0.0283 ± 0.0051	0.027 ± 0.0066	0.0267 ± 0.0029
JIMT1 BREAST	0.833 ± 0.034	0.823 ± 0.062	0.84 ± 0.046	0.754 ± 0.1	0.0973 ± 0.016	0.0685 ± 0.0066	0.062 ± 0.0026	0.0647 ± 0.0033
ASKA SYNOVIAL	0.785 ± 0.062	0.728 ± 0.11	0.626 ± 0.045	0.293 ± 0.025	0.206 ± 0.014	0.182 ± 0.02	0.185 ± 0.011	0.226 ± 0.0099
H23 LUNG	0.949 ± 0.026	0.939 ± 0.01	0.9313 ± 0.0035	0.727 ± 0.03	0.234 ± 0.0085	0.11 ± 0.014	0.0333 ± 0.0011	0.0323 ± 0.0025
SG27 HEADNECK	1.046 ± 0.0051	1.07 ± 0.073	0.913 ± 0.039	0.93 ± 0.026	1.31 ± 0.16	1.1 ± 0.24	0.274 ± 0.044	0.111 ± 0.014
BT549 BREAST	0.874 ± 0.12	0.811 ± 0.034	0.604 ± 0.092	0.259 ± 0.064	0.152 ± 0.028	0.0433 ± 0.0042	0.0447 ± 0.0045	0.0467 ± 0.0025
SG43 HEADNECK	1.1 ± 0.2	1.1 ± 0.22	1.05 ± 0.043	0.801 ± 0.25	0.302 ± 0.069	0.074 ± 0.034	0.03 ± 0.004	0.028 ± 0.0062
MDAMB157 BREAST	0.897 ± 0.082	0.854 ± 0.053	0.848 ± 0.18	0.482 ± 0.098	0.233 ± 0.018	0.214 ± 0.038	0.163 ± 0.024	0.147 ± 0.008
SJSA1 BONE	0.84 ± 0.049	0.865 ± 0.064	0.872 ± 0.023	0.846 ± 0.029	0.217 ± 0.02	0.106 ± 0.0032	0.0517 ± 0.0055	0.0433 ± 0.0011
CAL120 BREAST	0.87 ± 0.04	0.861 ± 0.032	0.904 ± 0.016	0.83 ± 0.0039	0.226 ± 0.024	0.119 ± 0.015	0.0875 ± 0.0079	0.076 ± 0.0061
SKBR3 BREAST	0.752 ± 0.21	0.76 ± 0.055	0.497 ± 0.033	0.365 ± 0.026	0.25 ± 0.018	0.205 ± 0.013	0.177 ± 0.019	0.173 ± 0.0038
A549 LUNG	0.923 ± 0.039	0.909 ± 0.038	0.91 ± 0.007	0.813 ± 0.076	0.14 ± 0.014	0.06 ± 0.0044	0.0547 ± 0.0032	0.0493 ± 0.00058
SCC90 HEADNECK	0.866 ± 0.0092	0.923 ± 0.12	1 ± 0.11	0.862 ± 0.079	0.793 ± 0.039	0.423 ± 0.064	0.206 ± 0.042	0.0677 ± 0.013
93VU HEADNECK	0.814 ± 0.066	0.78 ± 0.0099	0.822 ± 0.088	0.92 ± 0.087	1.13 ± 0.099	0.119 ± 0.011	0.092 ± 0.0062	0.0827 ± 0.005
MDAMB436 BREAST	0.801 ± 0.045	0.797 ± 0.073	0.749 ± 0.077	0.581 ± 0.039	0.318 ± 0.027	0.344 ± 0.033	0.328 ± 0.042	0.352 ± 0.015
LNCAP PROSTATE	1.15 ± 0.1	1.14 ± 0.025	0.769 ± 0.12	0.359 ± 0.028	0.114 ± 0.009	0.0687 ± 0.012	0.0517 ± 0.0021	0.0523 ± 0.0064
MHM BONE	0.973 ± 0.016	0.966 ± 0.026	0.987 ± 0.043	1.019 ± 0.0027	1.04 ± 0.02	0.912 ± 0.048	0.262 ± 0.023	0.184 ± 0.0051
CME SYNOVIAL	0.9 ± 0.14	0.767 ± 0.024	1.01 ± 0.12	0.896 ± 0.13	0.259 ± 0.033	0.222 ± 0.015	0.239 ± 0.029	0.306 ± 0.032
OSHN BONE	0.9227 ± 0.006	0.923 ± 0.011	0.943 ± 0.013	0.937 ± 0.018	0.921 ± 0.018	0.232 ± 0.071	0.123 ± 0.0085	0.108 ± 0.0066
MCF7 BREAST	0.842 ± 0.015	0.817 ± 0.027	0.811 ± 0.021	0.777 ± 0.058	0.429 ± 0.0029	0.329 ± 0.0083	0.271 ± 0.015	0.275 ± 0.012
CAL51 BREAST	0.966 ± 0.047	0.886 ± 0.052	0.989 ± 0.033	0.93 ± 0.033	0.361 ± 0.0083	0.0827 ± 0.0082	0.0253 ± 0.00076	0.024 ± 0.0005
